Data as given in US12497465B2, “Combination of antibody-drug conjugate and tubulin inhibitor” (priority 2018, dated 2025).
Where a name gives a salt, the structure may show the parent alone. Read-outs that look alike come from different tables or passages of the source.

B1: antibody-drug conjugate (3): anti-CDH6 antibody (SEQ ID NO: 11 residues 20-471, SEQ ID NO: 12 residues 21-233) conjugated to exatecan-derivative drug-linker via a thioether bond (conjugate, chains of the INN, looked up)
VH: EVQLVQSGAEVKKPGASVKVSCKASGYTFTRNFMHWVRQAPGQGLEWMGWIYPGDGETEYAQKFQGRVTITADTSTSTAYMELSSLRSEDTAVYYCARGVYGGFAGGYFDFWGQGTLVTVSS
VL: DIQMTQSPSSLSASVGDRVTITCKASQNIYKNLAWYQQKPGKAPKLLIYDANTLQTGVPSRFSGSGSGSDFTLTISSLQPEDFATYFCQQYYSGWAFGQGTKVEIK
modifications: exatecan-derivative drug-linker (deruxtecan)

How the values were obtained:
[1] = tested on: Human breast cancer cell line JIMT-1; assay: Antitumor study (2): subcutaneously transplanted JIMT-1 cells in nude mice; format: in vivo; conditions: JIMT-1 xenograft, ADC (1) 10 mg/kg iv Day 0, paclitaxel 15 mg/kg iv Day 0, 7, 14, eribulin mesylate 0.8 mg/kg iv Day 0, 3
Procedure: (§1) Measurement and calculation formula: In all studies, the major axis and minor axis of tumors were measured twice a week with an electronic digital caliper (CD15-CX, Mitutoyo Corp.), and the tumor volume (mm^3) was calculated. The calculation formula is as shown below. Tumor volume(mm^3)=½×Major axis(mm)×[Minor axis (mm)]^2
(§2) Paclitaxel was dissolved with cremophor and ethanol (1:1), diluted with physiological saline, and then intravenously administered to the tail vein in a fluid volume of 10 or 20 mL/kg. Eribulin mesylate was diluted with physiological saline, and intravenously administered to the tail vein in a fluid volume of 10 mL/kg.
Human breast cancer cell line JIMT-1, which was purchased from DSMZ (Deutsche Sammlung von Mikroorganismen und Zellkulturen GmbH), was suspended into physiological saline, subcutaneously transplanted at 5×10^6 cells into the right side of female nude mice, and the mice were randomly grouped 13 days after the transplantation (Day 0). […] Paclitaxel was intravenously administered to the tail vein at a dose of 15 mg/kg on Day 0, Day 7 and Day 14. Eribulin mesylate was intravenously administered to the tail vein at a dose of 0.8 mg/kg on Day 0 and Day 3. Single administration groups of each drug, a combined administration group, and a solvent administration group as a control group were set up.

[2] = tested on: Human gastric cancer cell line NCI-N87; assay: Antitumor study (3): subcutaneously transplanted NCI-N87 cells in nude mice; format: in vivo; conditions: NCI-N87 xenograft, ADC (1) 1 mg/kg iv Day 0, paclitaxel 15 mg/kg iv Day 0, 7, eribulin mesylate 0.4 mg/kg iv Day 0, 4
Procedure: as §1, §2
Human gastric cancer cell line NCI-N87, which was purchased from ATCC (American Type Culture Collection), was suspended into physiological saline, subcutaneously transplanted at 1×10^7 cells into the right side of female nude mice, and the mice were randomly grouped 6 days after the transplantation (Day 0). […] Paclitaxel was intravenously administered to the tail vein at a dose of 15 mg/kg on Day 0 and Day 7. Eribulin mesylate was intravenously administered to the tail vein at a dose of 0.4 mg/kg on Day 0 and Day 4. Single administration groups of each drug, a combined administration group, and a solvent administration group as a control group were set up.

[3] = tested on: Human breast cancer cell line KPL-4; assay: Antitumor study (1): subcutaneously transplanted KPL-4 cells in nude mice; format: in vivo; conditions: KPL-4 xenograft, BALB/c nude mice, last day of the study; ADC (1) […] iv Day 0; paclitaxel 15 mg/kg iv Day 0, 7; eribulin mesylate 0.8 mg/kg iv Day 0, 4
From the text: The calculation formula is as shown below.
Human breast cancer cell line KPL-4, which was obtained from Dr. Junichi Kurebayashi in Kawasaki Medical School [British Journal of Cancer, (1999) 79 (5/6).

[4] = tested on: Human gastric cancer cell line SNU-1; assay: Antitumor study (5): subcutaneously transplanted SNU-1 cells in nude mice; conditions: SNU-1 xenograft, ADC (1) 10 mg/kg iv Day 0, paclitaxel 15 mg/kg iv Day 0, 7
Procedure: as §1
(§3) Paclitaxel was dissolved with cremophor and ethanol (1:1), diluted with physiological saline, and then intravenously administered to the tail vein in a fluid volume of 10 or 20 mL/kg.
Human gastric cancer cell line SNU-1, which was purchased from ATCC, was suspended into Matrigel, subcutaneously transplanted at 1×10^7 cells into the right side of female nude mice, and the mice were randomly grouped 28 days after the transplantation (Day 0). […] Paclitaxel was intravenously administered to the tail vein at a dose of 15 mg/kg on Day 0 and Day 7. Single administration groups of each drug, a combined administration group, and a solvent administration group as a control group were set up.

[5] = tested on: Human lung cancer cell line NCI-H441; assay: Antitumor study (6): subcutaneously transplanted NCI-H441 cells in nude mice; conditions: NCI-H441 xenograft, ADC (1) 10 mg/kg iv Day 0, paclitaxel 15 mg/kg iv Day 0, 7
Procedure: as §1, §3
Human lung cancer cell line NCI-H441, which was purchased from ATCC, was suspended into Matrigel, subcutaneously transplanted at 5×10^6 cells into the right side of female nude mice, and the mice were randomly grouped 7 days after the transplantation (Day 0). […] Paclitaxel was intravenously administered to the tail vein at a dose of 15 mg/kg on Day 0 and Day 7. Single administration groups of each drug, a combined administration group, and a solvent administration group as a control group were set up.

[6] = tested on: Human breast cancer cell line JIMT-1; conditions: JIMT-1 xenograft, nude mice; ADC (2) 10 mg/kg iv Day 0, 7, 14; paclitaxel 15 mg/kg iv Day 0, 7
Procedure: as §1, §3
Human breast cancer cell line JIMT-1, which was purchased from DSMZ, was suspended into physiological saline, subcutaneously transplanted at 5×10^6 cells into the right side of female nude mice, and the mice were randomly grouped 10 days after the transplantation (Day 0). […] Paclitaxel was intravenously administered to the tail vein at a dose of 15 mg/kg on Day 0 and Day 7. Single administration groups of each drug, a combined administration group, and a solvent administration group as a control group were set up.

[7] = tested on: Human breast cancer cell line MDA-MB-453; assay: Antitumor study (4): subcutaneously transplanted MDA-MB-453 cells in nude mice; conditions: MDA-MB-453 xenograft, ADC (1) 0.5 mg/kg iv Day 0, paclitaxel 15 mg/kg iv Day 0, 7
Procedure: as §3
Human breast cancer cell line MDA-MB-453, which was purchased from ATCC, was suspended into Matrigel basal membrane matrix (Matrigel), subcutaneously transplanted at 1×10^7 cells into the right side of female nude mice, and the mice were randomly grouped 7 days after the transplantation (Day 0). […] Paclitaxel was intravenously administered to the tail vein at a dose of 15 mg/kg on Day 0 and Day 7. Single administration groups of each drug, a combined administration group, and a solvent administration group as a control group were set up.

[8] = tested on: Human ovarian cancer cell line OV-90; assay: Antitumor study (8): subcutaneously transplanted OV-90 cells in nude mice; conditions: OV-90 xenograft, Day 17, ADC (3) 10 mg/kg iv Day 0, paclitaxel 15 mg/kg iv Day 0, 7, 14
Procedure: as §1, §3
Human ovarian cancer cell line OV-90, which was purchased from ATCC, was suspended into Matrigel, subcutaneously transplanted at 2.5×10^6 cells into the right side of female nude mice, and the mice were randomly grouped 15 days after the transplantation (Day 0). […] Paclitaxel was intravenously administered to the tail vein at a dose of 15 mg/kg on Day 0, Day 7, and Day 14. Single administration groups of each drug, a combined administration group, and a solvent administration group as a control group were set up.

Molecule | TGI [1] | TGI [2] | tumor growth inhibition (TGI) [3] | TGI [4] | TGI [5] | TGI [6] | TGI [7] | TGI [8]
C=C1C[C@@H]2CC[C@@]34C[C@H]5O[C@H]6[C@@H](O3)[C@H]3O[C@H](CC[C@@H]3O[C@H]6[C@H]5O4)CC(=O)C[C@@H]3[C@@H](OC)[C@@H](C[C@H](O)CN)O[C@H]3C[C@H]3O[C@@H](CC[C@@H]1O2)C[C@@H](C)C3=C [eribulin mesylate] | 73% | 64% | 91% |  |  |  |  | 
CC(=O)O[C@H]1C(=O)[C@@]2(C)[C@H]([C@H](OC(=O)c3ccccc3)[C@]3(O)C[C@H](OC(=O)[C@H](O)[C@@H](NC(=O)c4ccccc4)c4ccccc4)C(C)=C1C3(C)C)[C@]1(OC(C)=O)CO[C@@H]1C[C@@H]2O [paclitaxel] | 30% | 50% | 48% | 58% | 55% | 36% | 96% | 80%
antibody-drug conjugate (2): anti-HER3 antibody (SEQ ID NO: 3 and 4) conjugated to exatecan-derivative drug-linker via a thioether bond |  |  |  |  |  | 69% |  | 
B1 |  |  |  |  |  |  |  | 97%
